Laboratory results as given in patent US12612386B2, “Heteroaryl-triazole compounds as pesticides” (Bayer Aktiengesellschaft, priority 2020, dated 2026).

Assays:
Assay type in all cases: in vivo
[1] = system: cattle tick larvae (Rhipicephalus microplus), strain Parkhurst, resistant against synthetic pyrethroids; assay: Rhipicephalus (Boophilus) microplus in-vitro contact test, larval cattle tick; settings: 5 μg/cm^2 (=500 g/ha), after 48 hours
How it was run: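 Compound in acetone coated onto the inner walls of glass tubes (900 ppm giving 5 μg/cm^2), solvent evaporated, then 20–50 larvae added and held at 27 °C, 85% RH. After 48 h, efficacy scored from negative geotactic behaviour as % dead or moribund larvae.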

[2] = system: adult engorged female ticks (Rhipicephalus microplus); assay: Rhipicephalus (Boophilus) microplus injection test; settings: 4 μg/animal, egg deposition after 7 days
Experimental: Rhipicephalus (Boophilus) Microplus—Injection Test
(§1) Solvent: dimethyl sulfoxide
To produce a suitable preparation of active compound, 10 mg of active compound are dissolved in 0.5 mL solvent, and the concentrate is diluted with solvent to the desired concentration.
Five adult engorged female ticks (Rhipicephalus microplus) are injected with 1 μL compound solution into the abdomen. The ticks are transferred into replica plates and incubated in a climate chamber.
After 7 days egg deposition of fertile eggs is monitored. Eggs where fertility is not visible are stored in a climate chamber till hatching after about 42 days. An efficacy of 100% means all eggs are infertile; 0% means all eggs are fertile.

[3] = system: adult unfed cat fleas (Ctenocephalides felis); assay: Ctenocephalides felis oral test; settings: 48 h
Experimental: Ctenocephalides felis—Oral Test
as §1
To produce a suitable preparation of active compound, 10 mg of active compound are dissolved in 0.5 mL solvent, and the concentrate is diluted with citrated cattle blood to the desired concentration.
Approximately 20 adult unfed cat fleas (Ctenocephalides felis) are placed in a flea chamber whose top and bottom is covered with gauze. A chamber whose bottom is sealed with parafilm, is filled with the blood-compound solution and placed on top of the flea chamber, so that the fleas can suck the blood. The blood chamber is heated to 37° C. whereas the flea chamber is kept at room temperature.
After 2 days mortality in % is determined. 100% means all the fleas have been killed; 0% means none of the fleas have been killed.

[4] = system: adult brown dog ticks (Rhipicephalus sanguineus); assay: Rhipicephalus sanguineus in-vitro contact test, adult brown dog ticks; settings: 48 h, read-out: efficacy (ticks dead or moribund)
How it was run: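 Glass tubes are coated with compound dissolved in acetone, a 900 ppm solution yielding 5 μg/cm^2 on the inner surface. Adult ticks (5-10 per tube) are kept on the dry film at room temperature for 48 h, then those unable to escape 45-50° C heat are counted as dead or moribund.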

[5] = system: larvae of the banded cucumber beetle (Diabrotica balteata); assay: Diabrotica balteata spray test; settings: 168 h, 100 g/ha (=32 μg/well), after 7 days, read-out: efficacy (seedling growth)
How it was run: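 Efficacy is seedling survival after 7 days, where 0% means no seedlings grew and 100% means growth equal to untreated, uninfested controls. Wheat seedlings, germinated on agar for 1 day, were sprayed with the aqueous emulsifier dilution (acetone/DMF solvent) and then exposed to 10–20 banded cucumber beetle larvae.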

[6] = system: green peach aphid (Myzus persicae); assay: whole plant or invertebrate; settings: 120 h
Experimental: Solvent: 100 parts by weight acetone
To produce a suitable preparation of active compound, 1 part by weight of active compound is mixed with the stated amount of solvent, and the concentrate is diluted with water to the desired concentration.
50 μL compound solution is filled in microtiter plates and 150 μL IPL41 insect medium (33%+15% sugar) is added to obtain a total volume of 200 μL per well. Afterwards the plates are sealed with parafilm through which a mixed population of the green peach aphid (Myzus persicae) can suck on the compound preparation.
After 5 days mortality in % is determined. 100% means all aphids have been killed and 0% means none of the aphids have been killed.
Myzus persicae—Oral Test (MYZUPE Oral)

[7] = system: green peach aphid (Myzus persicae); assay: Myzus persicae spray test (MYZUPE); settings: 120 h, 100 g/ha, after 5 days
How it was run: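 Percent aphid kill, with 0% meaning none killed, was read 5 days after spraying. The preparation (acetone–DMF solvent, water with 1000 ppm emulsifier) was applied to Brassica pekinensis leaf disks carrying mixed-instar green peach aphids.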

[8] = system: fall armyworm larvae (Spodoptera frugiperda); assay: whole plant or invertebrate; settings: 168 h
How it was run: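 Percent kill of Spodoptera frugiperda caterpillars, read 7 days after infestation of dried, spray-treated Zea mays leaf pieces. Spray preparation: compound in acetone plus dimethylformamide, diluted with emulsifier-containing water.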

C[C@H](NC(=O)c1cc(Br)cc(OC(F)(F)F)c1)c1ncnn1-c1cc(C#N)ncn1 [I-1, 3-bromo-N-{(1S)-1-[1-(6-cyanopyrimidin-4-yl)-1H-1,2,4-triazol-5-yl]ethyl}-5-(trifluoromethoxy)benzamide]
efficacy (larvae dead or moribund) [1]: 100%
efficacy (infertile eggs) [2]: 100%
mortality at 100 ppm [3]: 100%
pest or weed control at 5 µg/cm2, 500 g/ha [4]: 100%
pest or weed control at 32 µg/disc, 100 g/ha [5]: 80%
mortality at 0.16 ppm ([6]; MYZUPE oral, 0.16 ppm, 5 dat (Table 3), read-out: % Efficacy): 100%
mortality at 4 ppm ([6]; po): 100%
mortality at 100 g/ha [7]: 90%
mortality at 100 g/ha [8]: 100%
Emax at 20 g/ha ([8]; SPODFR, 20 g ai/ha, 7 dat (Table 3), read-out: % Efficacy): 100%
